The subject of one assay is His6-avi-MBP-tagged POLE2. Nature of the assay: Single-point nHU-MS with recombinant His6-avi-MBP-POLE2 bait, Jurkat extract. It counts as binding, human. As to conditions: bait av-His6-MBP-tagged full-length POLE2; MS6_Varjosalo. From the text:
So far, our study only focused on a few hand-picked NPF motifs and studied them as short synthetic peptides. However, many other proteins may be present in the proteome that could bind to POLE2 and their putative NPF motifs are embedded in their natural structures that can greatly affect their binding properties. To investigate interactions between POLE2 and intact, full length proteins proteome-wide, we used nHU-MS experiments with recombinant His6-avi-MBP-tagged POLE2 as bait and purified His6-avi-MBP as a control. Even though we are aware that this recombinant POLE2 may bind to NPF motifs with a somewhat altered affinity, we assumed that this would affect all NPF motif-mediated interactions equally, allowing an unbiased affinity ranking of all identified partners. Single point nHU measurements were performed at 26 μM POLE2 concentration and the recovered supernatant was measured by label free proteomic MS measurements (Fig. 3A, Supplementary Figs. 8A, 9, Supplementary Data 1).
Single-point nHU experiments with protein baits were carried out nearly identically with two key modifications. First, the resin saturation step was carried out by mixing 50 μl streptavidin resin with 0.5−1 ml 50 μM biotinylated protein solution and the mixture was incubated for 1.5 h at 4 °C with constant agitation. Second, instead of using estimated bait concentrations, we measured it experimentally. An extra aliquot of resin stock was prepared alongside the nHU samples that were identically processed that were used to eluate the immobilized proteins under harsh conditions, in order to experimentally quantify the Cbait by using densitometry of Coomassie stained SDS-PAGE that included a protein calibration series. For this, 50 μl bait-saturated resin aliquots were mixed with 200 μl 4x Laemmli Sample Buffer (120 mM Tris-HCl pH 7, 8% SDS, 100 mM DTT, 32% glycerol, 0.004% bromphenol blue, 1% β-mercaptoethanol), instead of cell extract. After 15 min incubation at 95 °C, these samples were analyzed by SDS-PAGE using protein calibration standard, made from recombinant MBP. Densitometry was carried out after Coomassie staining on raw Tif images by using Fiji ImageJ 1.53c and experimental bait concentration were determined by adjusting for molecular weight differences between MBP and MBP-POLE2 constructs.
Samples were digested overnight at 37 °C.
As for “DEGFK [ACACA, endogenous full length prey protein]”, the BI was determined as 0.2013, the log2FC is on record as -0.3242 and the pKapp was found to be 3.986.
On to “PSASG [NUP214, endogenous full length prey protein]”, for which the BI was 0.2012, the log2FC was -0.3242 and the pKapp is 3.986.
Turning to “PSTST [UBR5, endogenous full length prey protein]”, the BI is recorded as 0.2095, the log2FC is on record as -0.3392 and the pKapp is on record as 4.008.
Regarding “PYCR1: endogenous full length prey protein”, the log2FC was -0.3412.

Staying with this assay, now noted: non-zero for significant partners; MS6_Varjosalo.
As to “DEGFK [ACACA, endogenous full length prey protein]”, the pKapp_sign is recorded as 3.986.
With “PSASG [NUP214, endogenous full length prey protein]”, the pKapp_sign is 3.986.
For the substance “PSTST [UBR5, endogenous full length prey protein]”, the pKapp_sign amounted to 4.008.

Staying with this assay, now noted: significant apparent affinity of endogenous prey protein for POLE2 bait; single-point nHU-MS; Figure S11.
For the substance AGL, the pKapp_sign is on record as 4.38.
Regarding ARLRH [AKNA], the pKapp_sign is given as 4.257.
For ASVD [CPSF4], the pKapp_sign turned out to be 4.068.
The same measure, in the same setting: next, CRIPT: 4.909.
With “DEGFK [ACACA, endogenous full length prey protein]”, the pKapp_sign is given as 3.986.
For the substance KDDY [DNAJC10], the pKapp_sign was found to be 4.21.
For the substance KPKKPLTSSS [MAPRE1], the pKapp_sign is reported as 4.964.
Take KPTSTYSLSS [VIPAS39]: the pKapp_sign is recorded as 4.13.
Still for that read-out and setting: with LSVD [LEF1] the figure was 4.471.
Take MIOS: the pKapp_sign is reported as 4.5333.
Same read-out and setting: with “NPFA [WDR59, endogenous full length prey protein]” the figure was 4.457.
Still for that read-out and setting: next, “NPFI [DNAJA3, endogenous full length prey protein]”: 4.13.
Same read-out and setting: next, “NPFK [CCDC134, endogenous full length prey protein]”: 4.219; “NPFQ [MAPK1IP1L, endogenous full length prey protein]”: 4.047.
Take “NPFQ [SSBP2, endogenous full length prey protein]”: the pKapp_sign is 4.583.
As for “NPFT [NOSIP, endogenous full length prey protein]”, the pKapp_sign was determined as 4.058.
“NSVD [PLEKHA5, endogenous full length prey protein]”: the pKapp_sign was 4.548.
Turning to PAAST [NUP58], the pKapp_sign is 4.1.
Consider PPSSKVSSHS [CNTRL], for which the pKapp_sign amounted to 4.363.
Take “PSASG [NUP214, endogenous full length prey protein]”: the pKapp_sign is given as 3.986.
Take PSASM [RFWD3]: the pKapp_sign worked out at 4.618.
As to PSASR [NUP188], the pKapp_sign was 4.034.
Consider “PSASS [ERCC6L, endogenous full length prey protein]”, for which the pKapp_sign was found to be 4.421.
“PSASS [TTF2, endogenous full length prey protein]”: the pKapp_sign was 4.771.
With “PSAST [EPN2, endogenous full length prey protein]”, the pKapp_sign amounted to 4.531.
Turning to PSPST [EXO1], the pKapp_sign was 4.499.
Consider PSSST [GIGYF2], for which the pKapp_sign came out at 4.1436.
Regarding “PSTST [UBR5, endogenous full length prey protein]”, the pKapp_sign stood at 4.008.
Consider PSVST [ZMYM1], for which the pKapp_sign was 4.45.
As for “PVGGND [USP9X, endogenous full length prey protein]”, the pKapp_sign was 4.835.
Take PVLGNI [SSBP3]: the pKapp_sign was 4.288.
In the case of “PYCR1: endogenous full length prey protein”, the pKapp_sign is 4.011.
As for QDLGNI [CTSA], the pKapp_sign was found to be 4.815.
Consider QPLRH [OIP5], for which the pKapp_sign was 4.225.
RARA [INKA1]: the pKapp_sign was 5.687.
With RHRA [FIP1L1], the pKapp_sign is 4.277.
As for RSRSVS [ZNRF1], the pKapp_sign worked out at 4.487.
For the substance RSVD [PLEKHA7], the pKapp_sign turned out to be 4.312.
In the case of SLGEI [GYG1], the pKapp_sign was 4.703.
With SLRED [INPP5K], the pKapp_sign turned out to be 4.539.
Take SSNSQ [PNPT1]: the pKapp_sign was 4.014.
With SSQSY [EIF4E2], the pKapp_sign is given as 4.429.
Regarding TNSTSD [PIKFYVE], the pKapp_sign was 4.132.
As for TRIM25, the pKapp_sign is 4.096.
With TRIM27, the pKapp_sign is listed as 4.707.
In the case of “TSPTSD [NUMB, endogenous full length prey protein]”, the pKapp_sign is listed as 4.316.
As for TTAATSV [SEC23IP], the pKapp_sign is reported as 4.243.

The next assay has as its system POLE. Nature of the assay: Titration nHU, Western blot, endogenous POLE in Jurkat extract. The assay is classed as binding, human. As to conditions: titration nHU with peptide bait, Western blot; listed as CLSPN. An excerpt: To identify the partners of NPF motifs, we used the native holdup (nHU) assay that was recently developed by our team (Fig. 1B). The holdup approach has been extensively used to determine equilibrium dissociation constants of transient interactions mediated by PDZ and SH3 domains, 14-3-3, and human papilloma virus E6 proteins, and even nucleic acid-protein interactions[7],[30]–[35]. In the nHU experiments, a purified bait molecule, or a control compound, is immobilized on a resin at high concentration (typically 10 μM, or higher) and these resin stocks are subsequently mixed with dilute cell extracts. After a relatively long incubation, i.e., 2 h at 4 °C, the liquid phase is separated by centrifugation. This liquid phase contains the unbound prey molecules at near binding equilibrium that can be quantified using selective and quantitative analytical approaches, such as mass spectrometry. Therefore, proteins that interact with the bait molecule will appear to be depleted in the solvent phase and by measuring its relative concentration compared to the control nHU experiment, the degree of binding (θ) can be determined that can be converted to apparent steady-state dissociation constants, according to:1 θ=1−Ifree/Itot=Cbait/Cbait+Kapp where Itot and Ifree are the measured total and bait-depleted equilibrium mass spectrometry total ion intensities of prey proteins, Cbait is the bait molecule concentration and Kapp is the apparent dissociation constant.
Jurkat E6.1 cells (ECACC #88042803, RRID: CVCL_0367) were grown in RPMI (Gibco) medium completed with 10% FBS (Gibco BRL) and 40 μg/ml gentamicin (Gibco/Life Technology). To prepare total cell extracts, Jurkat cells were seeded onto T-175 flasks and grew until 3 × 10^6 cells/ml confluency. Cells were collected by 1000 g x 5 min centrifugation, washed with PBS and then lysed in ice-cold lysis buffer (Hepes-KOH pH 7.5 50 mM, NaCl 150 mM, Triton X-100 1%, cOmplete EDTA-free protease inhibitor cocktail 5x, TCEP 5 mM, glycerol 10%).
Cell suspensions were sonicated 4×20 sec with 1 sec long pulse on ice, then incubated rotating at 4 °C for 30 min. The lysates were centrifuged at 12,000 rpm 4 °C for 20 min and supernatant was kept. Total protein concentration was measured by standard Bradford method (Bio-Rad Protein Assay Dye Reagent #5000006) using a BSA calibration curve (MP Biomedicals #160069, diluted in lysis buffer) on a Bio-Rad SmartSpec 3000 spectrophotometer instrument.
Titration holdup experiments were carried out as described above using 25 μl saturated resins prepared. Briefly, we mixed control, or bait-saturated resins at various proportions by keeping the total resin amount and resin-analyte ratio constant during the experiment (for 25 μl we used 100 μl cell extract as analyte). In titration experiments with protein baits, bait concentration was determined as described above for the saturated resin stocks. Experiments were carried out at 4 °C for 2 h and recovered supernatants were subjected to western blot or dot blot analysis.
For Western blot, samples were mixed with 4x Laemmli Sample Buffer in 3:1 ratio. Equal amounts of samples were loaded on 6-10% acrylamide-gels (generally 16 μg). Transfer was done into PVDF membranes using a Trans-Blot Turbo Transfer System and Trans-Blot Turbo RTA Transfer Kit (BioRad, #1704275). For Dot blot, nHU samples were directly loaded on Nitrocellulose membranes using 48 Sample vacuum manifold (Cleaver Scientific) following the manufacturer’s recommendations.
After 1 h of blocking in 5% milk, membranes were incubated overnight at 4 °C with primary antibodies in 5% milk-TBS-Tween.
(In general: In western blotting, separated proteins are transferred to a membrane and probed.)
Take “SRPMVIQESKSLLRNPFEAIRPGS [CLSPN 1223-1246, biotinylated NPF motif peptide of Claspin]”: the “binding to endogenous POLE” value was “unable to bind to endogenous POLE”.

Staying with this assay, now noted: titration nHU with peptide bait, Western blot; listed as Claspin.
Consider “SRPMVIQESKSLLRNPFEAIRPGS [CLSPN 1223-1246, biotinylated NPF motif peptide of Claspin]”, for which the “binding to endogenous POLE” value is reported as “could not interact with POLE”.

Staying with this assay, now noted: titration nHU with peptide bait, Western blot; listed as NPF motif of ERCC6L.
Turning to “RRIVSDGEDEDDSFKDTSSINPFNTSLFQFSSVKQFDAS [ERCC6L 1024-1062, biotinylated NPF motif peptide of ERCC6L]”, the “binding to endogenous POLE” value is reported as “No apparent binding”.
